Reference: patent publication US20180111893A1, “POLYCATIONIC AMPHIPHILES AND POLYMERS THEREOF AS ANTIMICROBIAL AGENTS AND METHODS USING SAME” (Temple University-Of The Commonwealth System of Higher …, priority 2015, published 2018)
Like-named read-outs stand apart in the source and are kept apart here.

How the values were obtained:
[1] = tested on: Enterococcus faecalis biofilms; assay: Minimum biofilm eradication concentration (MBEC), regrowth assay; type: cell-based; conditions: Table 1
Description: (§1) A regrowth assay was used to establish the MBEC of a compound to evaluate the antibiofilm activity. See also H. Ceri, M. Olson, D. Morck, D. Storey, R. Read, A. Buret, B. Olson, Methods Enzymol. 2001, 337, 377, which is incorporated by reference herein in its entirety.

[2] = tested on: Staphylococcus aureus (MSSA) biofilms; assay: as above; type: cell-based; parameters: MBEC MSSA: unit not given here; conditions: for MBEC v SA: Table 1; for MBEC MSSA: Table 5, regrowth OD under 0.1 (italics: OD < 0.5)
Protocol: as §1
(§2) To each well of a flat-bottomed 96-well plate (Corning 3370), 8 μL of overnight bacterial culture was brought to a volume of 200 μL with fresh media (BHI for MSSA and MRSA). Plates were incubated statically for 24 hours at 37° C. to establish biofilms. After 24 hours, the wells were carefully emptied by inverting the plate and gently shaking. A pre-mixed solution of media and compound stock solution was added to each well and plates were incubated at 37° C. 16 hours after pre-established biofilms were treated with compound, the media from each well was removed, biofilms were washed three times with 200 μL PBS to remove planktonic cells, and biofilms were incubated overnight at 37° C. in 200 μL of fresh media to allow any viable cells to continue growing. The wells were then vigorously pipetted to resuspend the biofilm cells and the OD at 595 nm was measured using a plate reader (POLARstar Omega, BMG Labtech). Biofilms reaching a final OD of less than 0.1 were considered eradicated and the lowest concentration of antibiotic corresponded to the MBEC. Four replicates were completed for each concentration of compound as well as positive and negative controls.

[3] = tested on: Staphylococcus aureus (SA; MSSA SH1000); assay: Minimum inhibitory concentration (MIC); type: cell-based; parameters: MIC MSSA: unit not given here; conditions: for MIC SA: Table 6
Protocol: (§3) As used herein, the term “minimum inhibitory concentration (MIC)” refers to the lowest concentration of an antimicrobial agent that will inhibit the visible growth of a microorganism after overnight incubation. MIC values against bacteria, for example, the Gram-positive Staphylococcus aureus and Enterococcus faecalis and the Gram-negative Escherichia coli and Pseudomonas aeruginosa were determined by standard methods. See also P. A. Wayne, Methods for Dilution Antimicrobial Tests for Bacteria that Grow Aerobically; Approved Standard, Ninth Edition, 2012, CLSI Document M07-A9, Vol. 32 No. 2, which is incorporated by reference herein in its entirety.
(§4) Compounds were serially diluted two-fold from a 10% DMSO/aqueous stock solution to yield twelve test concentrations. Overnight S. aureus, E. faecalis, E. coli, P. aeruginosa, CA-MRSA, and HA-MRSA cultures diluted to ca. 10^6 cfu/mL in Mueller-Hinton media and 100 μL were inoculated into each well of a U-bottom 96-well plate (BD Biosciences, BD351177) containing 100 μL of compound solution. Plates were incubated statically at 37° C. for 72 hours upon which time wells were evaluated visually for bacterial growth. The MIC was determined as the lowest concentration of compound resulting in no bacterial growth visible to the naked eye, based on the majority of three independent experiments. Positive and negative DMSO/aqueous solution and media controls were conducted for each trial. See Peng et al., 2011, Chem. Comm. 47:4896-4898.
as §4, with “trial.” for “trial. See Peng et al., 2011, Chem. Comm. 47:4896-4898.”

[4] = tested on: Escherichia coli (MC4100); assay: Minimum inhibitory concentration (MIC); type: cell-based; conditions: for MIC v EC: Table 1
Protocol: as §3, §4
as §4, with “trial.” for “trial. See Peng et al., 2011, Chem. Comm. 47:4896-4898.”

[5] = tested on: Enterococcus faecalis (OG1RF); assay: Minimum inhibitory concentration (MIC); type: cell-based; conditions: for MIC v EF: Table 1; for MIC EF: Table 6
Protocol: as §3, §4
as §4, with “trial.” for “trial. See Peng et al., 2011, Chem. Comm. 47:4896-4898.”

[6] = tested on: Pseudomonas aeruginosa (PAO1); assay: Minimum inhibitory concentration (MIC); type: cell-based; conditions: for MIC v PA: Table 1
Protocol: as §3, §4
as §4, with “trial.” for “trial. See Peng et al., 2011, Chem. Comm. 47:4896-4898.”

[7] = tested on: MRSA biofilms (S. aureus USA300-0114); assay: Minimum biofilm eradication concentration (MBEC), regrowth assay; type: cell-based, Staphylococcus aureus; parameters: MBEC MRSA: unit not given here; conditions: for MBEC MRSA: Table 5, regrowth OD under 0.1 (italics: OD < 0.5); for MBEC v MRSA: Table 2, pre-formed MRSA biofilms
Protocol: as §1, §2

[8] = tested on: red blood cells; type: cell-based, sheep
Protocol: To date, synthesized compounds have been evaluated against planktonic bacteria (E. coli, S. aureus, P. aeruginosa, E. facaelis) and bacterial biofilms (E. facaelis, S. aureus, MRSA); new compounds are similarly assessed. All compounds are also evaluated via a hemolysis assay to assess their ability to lyse red blood cells (RBC) (Nagamune et al., 2000, Toxicology in Vitro 14:139-147). The assay is conducted following a known protocol to determine the concentration of compound that causes 20% of RBCs to be lysed. […] All compounds are benchmarked against three commercial antiseptics—benzalkonium chloride, DDAC, and CHX (FIG. 1).
Hemolysis assays were performed according to a known method (Peng et al., 2011, Chem. Comm. 47:4896-4898). Defibrinated sheep blood was purchased from Hemostat Labs (DSB030). Compounds representative of each class were serially diluted in sterile PBS from stock solutions and incubated with resuspended blood cells. The OD of the final suspensions were measured directly using plate reader. TritonX (1% by volume) served as a positive control (100% lysis marker) and sterile PBS served as a negative control (0% lysis marker).

[9] = tested on: community-acquired methicillin-resistant Staphylococcus aureus CA-MRSA (USA300-0114); assay: Minimum inhibitory concentration (MIC); type: cell-based; parameters: MIC MRSA: unit not given here; conditions: for MIC CA-MRSA: Table 6
Protocol: as §3, §4
as §4, with “trial.” for “trial. See Peng et al., 2011, Chem. Comm. 47:4896-4898.”

[10] = tested on: six bacteria (SA, HA-MRSA, CA-MRSA, EF, EC, PA); assay: MIC against the panel of bacteria tested; type: cell-based; conditions: for antimicrobial activity: quinine- and nicotine-derived QACs, in words; for low micromolar activity: all bacteria except for P. aeruginosa
Protocol: as §3
The complete set of MIC values against six bacteria [Staphylococcus aureus (SA), hospital-acquired methicillin-resistant SA (HA-MRSA), community-acquired methicillin-resistant SA (CA-MRSA), Enterococcus faecalis (EF), Escherichia coli (EC), and Pseudomonas aeruginosa (PA)] is presented in Table 3, wherein multiQACs are grouped with their monoQAC counterparts. The dye-based QACs with greatest inhibition of the complete range of Gram-positive and Gram-negative bacteria featured bis- or tris-quaternization, with the optimal alkyl total ranging from 17-24 carbons. For example, comparison of two biscationic series -LMG-n,1 and LMG-n,n—evaluates the effect of total alkyl chain length in retention of efficacy against the more challenging CA-MRSA and the Gram-negative strains EC and PA.
as §4

[11] = tested on: hospital-acquired methicillin-resistant Staphylococcus aureus HA-MRSA (ATCC 33591); assay: Minimum inhibitory concentration (MIC); type: cell-based; conditions: Table 6
Protocol: as §3, §4
as §4, with “trial.” for “trial. See Peng et al., 2011, Chem. Comm. 47:4896-4898.”

CCCCCCCCCCCC[N+](C)(C)CCCN(C)CCC[N+](C)(C)CCCCCCCCCCCC [12(3)0(3)12]
MBEC v EF [1]: 50 µM | MBEC v SA [2]: 37.5 µM | MIC v SA ([3]; Table 1): 1 µM | MIC v EC [4]: 1 µM | MIC v EF [5]: 2 µM | MIC v PA [6]: 4 µM

CCCCCCCCCCCC[N+](C)(C)CCC[N+](C)(C)CCC[N+](C)(C)CCCCCCCCCCCC [12(3)1(3)12]
MBEC v EF [1]: 50 µM | MBEC v SA [2]: 50 µM | MIC v SA ([3]; Table 1): 1 µM | MIC v EC [4]: 2 µM | MIC v EF [5]: 2 µM | MIC v PA [6]: 8 µM

CCCCCCCCCCCCCCCC[N+]1(C)CCN(C)CCN(C)CC1.[Br-] [C-16,0,0]
MBEC MSSA [2]: >200 | MBEC MRSA [7]: >200

CCCCCCCCCCCCCCCC[N+]1(C)CC[N+](C)(C)CC[N+](C)(C)CC1 [C-16,1,1]
MBEC MSSA [2]: 200 | MBEC MRSA [7]: 200

CCCCCCCCCCCCCCCCCC[N+]1(C)CCN(C)CCN(C)CC1.[Br-] [C-18,0,0]
MBEC MSSA [2]: 200 | MBEC MRSA [7]: >200

CCCCCCCCCCCCCCCCCC[N+]1(C)CC[N+](C)(C)CC[N+](C)(C)CC1 [C-18,1,1]
MBEC MSSA [2]: >200 | MBEC MRSA [7]: >200

CCCCCCCCCCCCCCCCCCCC[N+]1(C)CCN(C)CCN(C)CC1.[Br-] [C-20,0,0]
MBEC MSSA [2]: >200 | MBEC MRSA [7]: >200

CCCCCCCCCCCCCCCCCCCC[N+]1(C)CC[N+](C)(C)CC[N+](C)(C)CC1 [C-20,1,1]
MBEC MSSA [2]: >200 | MBEC MRSA [7]: >200

CCCCCCCCCCCCCCCC[n+]1ccccc1 [Cetyl pyridinium chloride]
Lysis20 ([8]; concentration at which 20% of RBCs are lysed): 8 µM | TI MRSA ([8]; therapeutic index, Lysis20/MIC v MRSA): 0.5 | TI SA ([8]; therapeutic index, Lysis20/MIC v SA): 16 | MBEC v MRSA [7]: 200 µM

CCCCCCCCCCCC[N+](C)(C)CCN(C)CCN(C)CC[N+](C)(C)CCCCCCCCCCCC [N4-12,0,0,12]
MBEC v EF [1]: 75 µM | MBEC v SA [2]: 50 µM | MIC v SA ([3]; Table 1): 1 µM | MIC v EC [4]: 1 µM | MIC v EF [5]: 1 µM | MIC v PA [6]: 2 µM

C=CC[N+](C)(CC[N+](C)(C)CCCCCCCCCCCC)CC[N+](C)(CC=C)CC[N+](C)(C)CCCCCCCCCCCC (stereo not shown) [N4-12,allyl,allyl,12]
MIC v MRSA ([9]; Table 2, qac-bearing MRSA strain USA300-0114): 1 µM | Lysis20 [8]: 8 µM | TI MRSA [8]: 8 | TI SA [8]: 8 | MIC ([10]; FIG. 4 legend, range of MIC values): 1 to 2 µM | MIC v SA ([3]; Table 2, non-resistant S. aureus strain (SH1000)): 1 µM | MBEC v MRSA [7]: 150 µM

C[n+]1cccc([C@@H]2CCC[N+]2(C)C)c1 [N-1,1]
antimicrobial activity [10]: essentially no antimicrobial activity

CCCCCCCCCCCCCCCC[n+]1cccc([C@@H]2CCCN2C)c1.[Br-] [N-16,0]
low micromolar activity [10]: 4 µM

CCCCCCCCCCCCCCCCCC[n+]1cccc([C@@H]2CCC[N+]2(C)C)c1.[Br-].[I-] [N-18,1]
low micromolar activity [10]: 4 µM

CCCCCCCCCCC[N+](C)(C)CCN1CC[N+](C)(CCCCCCCCCCC)CC1 [P-11,0,11]
MBEC MSSA [2]: 100 | MBEC MRSA [7]: 200

CCCCCCCCCCCC[N+](C)(C)CCN1CC[N+](C)(CCCCCCCCCCCC)CC1 [P-12,0,12]
MBEC MSSA [2]: 200 | MBEC MRSA [7]: 200

C=CC1C[N+]2(C)CCC1C[C@H]2[C@@H](O)c1cc[n+](C)c2ccc(OC)cc12 (stereo partly shown) [Q-1,1]
antimicrobial activity [10]: essentially no antimicrobial activity

C=CC1C[N+]2(CCCCCCCCCCCCCC)CCC1C[C@H]2[C@@H](O)c1ccnc2ccc(OC)cc12.[Br-] (stereo partly shown) [Q-14,0]
antimicrobial activity [10]: strongest activity

CCCCCCCCCC[N+](C)(C)CCCN(CC[N+](C)(C)CCCCCCCCCC)CC[N+](C)(C)CCCCCCCCCC [T-10,10,10]
MBEC MSSA [2]: 100 | MBEC MRSA [7]: 200

CCCCCCCCCCC[N+](C)(C)CCN(CC[N+](C)(C)CCCCCCCCCCC)CC[N+](C)(C)CCCCCCCCCCC [T-11,11,11]
MIC MRSA ([9]; Table 5, S. aureus USA300-0114): 1 | MBEC MSSA [2]: 200 | MIC MSSA ([3]; Table 5, S. aureus SH1000): 0.5 | MIC EC ([4]; Table 5, E. coli MC4100): 1 mm | MIC PA ([6]; Table 5, P. aeruginosa PAO1): 2 mm | MBEC MRSA [7]: >200

C=CC[N+](CCC[N+](C)(C)CCCCCCCCCCCCCCCC)(CCC[N+](C)(C)CCCCCCCCCCCCCCCC)CCC[N+](C)(C)CCCCCCCCCCCCCCCC [sT-16,16,16,3A]
MIC CA-MRSA [9]: 4 µM | MIC SA [3]: 4 µM | MIC HA-MRSA [11]: 16 µM | MIC EC ([4]; Table 6): 16 µM | MIC EF [5]: 8 µM | MIC PA ([6]; Table 6): 63 µM

CCCCCCCCCCCCCCCCCC[N+](C)(C)CCCN(CCC[N+](C)(C)CCCCCCCCCCCCCCCCCC)CCC[N+](C)(C)CCCCCCCCCCCCCCCCCC [sT-18,18,18,0]
MIC CA-MRSA [9]: 4 µM | MIC SA [3]: 8 µM | MIC HA-MRSA [11]: 32 µM | MIC EC ([4]; Table 6): 32 µM | MIC EF [5]: 16 µM | MIC PA ([6]; Table 6): 63 µM

C=CC[N+](CCC[N+](C)(C)CCCCCCCCCCCCCCCCCC)(CCC[N+](C)(C)CCCCCCCCCCCCCCCCCC)CCC[N+](C)(C)CCCCCCCCCCCCCCCCCC [sT-18,18,18,3A]
MIC CA-MRSA [9]: 2 µM | MIC SA [3]: 2 µM | MIC HA-MRSA [11]: 16 µM | MIC EC ([4]; Table 6): 32 µM | MIC EF [5]: 32 µM | MIC PA ([6]; Table 6): 125 µM
